± gives the expanded uncertainty stated by the source.
Experiment: xn = mol fraction of the nth substance listed
Settings: 101 kPa, Liquid; for viscosity: Concentric cylinders viscometry; for mass density: Vibrating tube method

CCOC(=O)C(C)O (stereo not drawn) [DL-ethyl lactate] + CN1CCCC1=O
Settings	mass density [kg/m3]	viscosity [mPa·s]
288.15 K, x1 = 0.0999	1040.68 ± 0.11	2.34 ± 0.022
288.15 K, x1 = 0.2	1041.7 ± 0.12	2.601 ± 0.025
288.15 K, x1 = 0.3001	1042.78 ± 0.14	2.89 ± 0.028
288.15 K, x1 = 0.4	1043.43 ± 0.15	3.122 ± 0.03
288.15 K, x1 = 0.4997	1043.89 ± 0.17	3.352 ± 0.032
288.15 K, x1 = 0.6	1043.93 ± 0.19	3.508 ± 0.034
288.15 K, x1 = 0.7002	1043.56 ± 0.2	3.581 ± 0.035
288.15 K, x1 = 0.7999	1042.82 ± 0.22	3.567 ± 0.036
288.15 K, x1 = 0.8997	1041.57 ± 0.24	3.456 ± 0.035
288.15 K, x1 = 1	1039.28 ± 0.26	3.207 ± 0.033
293.15 K, x1 = 0.0999	1036.17 ± 0.11	2.125 ± 0.02
293.15 K, x1 = 0.2	1037.14 ± 0.12	2.347 ± 0.023
293.15 K, x1 = 0.3001	1038.17 ± 0.14	2.585 ± 0.025
293.15 K, x1 = 0.4	1038.75 ± 0.15	2.772 ± 0.027
293.15 K, x1 = 0.4997	1039.12 ± 0.17	2.952 ± 0.029
293.15 K, x1 = 0.6	1039.06 ± 0.18	3.066 ± 0.03
293.15 K, x1 = 0.7002	1038.56 ± 0.2	3.11 ± 0.031
293.15 K, x1 = 0.7999	1037.68 ± 0.22	3.08 ± 0.031
293.15 K, x1 = 0.8997	1036.28 ± 0.24	2.975 ± 0.03
293.15 K, x1 = 1	1033.84 ± 0.26	2.75 ± 0.028
298.15 K, x1 = 0.0999	1031.66 ± 0.11	1.941 ± 0.019
298.15 K, x1 = 0.2	1032.59 ± 0.12	2.132 ± 0.021
298.15 K, x1 = 0.3001	1033.56 ± 0.13	2.331 ± 0.023
298.15 K, x1 = 0.4	1034.06 ± 0.15	2.482 ± 0.024
298.15 K, x1 = 0.4997	1034.35 ± 0.16	2.624 ± 0.026
298.15 K, x1 = 0.6	1034.17 ± 0.18	2.706 ± 0.027
298.15 K, x1 = 0.7002	1033.55 ± 0.2	2.726 ± 0.027
298.15 K, x1 = 0.7999	1032.53 ± 0.21	2.692 ± 0.027
298.15 K, x1 = 0.8997	1030.98 ± 0.23	2.591 ± 0.026
298.15 K, x1 = 1	1028.39 ± 0.25	2.39 ± 0.025
303.15 K, x1 = 0.0999	1027.16 ± 0.11	1.785 ± 0.017
303.15 K, x1 = 0.2	1028.05 ± 0.12	1.947 ± 0.019
303.15 K, x1 = 0.3001	1028.95 ± 0.13	2.113 ± 0.021
303.15 K, x1 = 0.4	1029.38 ± 0.15	2.235 ± 0.022
303.15 K, x1 = 0.4997	1029.57 ± 0.16	2.349 ± 0.023
303.15 K, x1 = 0.6	1029.29 ± 0.18	2.41 ± 0.024
303.15 K, x1 = 0.7002	1028.53 ± 0.19	2.416 ± 0.024
303.15 K, x1 = 0.7999	1027.37 ± 0.21	2.378 ± 0.024
303.15 K, x1 = 0.8997	1025.67 ± 0.23	2.284 ± 0.024
303.15 K, x1 = 1	1022.92 ± 0.25	2.097 ± 0.022
308.15 K, x1 = 0.0999	1022.66 ± 0.1	1.646 ± 0.016
308.15 K, x1 = 0.2	1023.5 ± 0.12	1.786 ± 0.017
308.15 K, x1 = 0.3001	1024.34 ± 0.13	1.927 ± 0.019
308.15 K, x1 = 0.4	1024.69 ± 0.14	2.026 ± 0.02
308.15 K, x1 = 0.4997	1024.79 ± 0.16	2.116 ± 0.021
308.15 K, x1 = 0.6	1024.38 ± 0.17	2.16 ± 0.022
308.15 K, x1 = 0.7002	1023.5 ± 0.19	2.156 ± 0.022
308.15 K, x1 = 0.7999	1022.2 ± 0.21	2.115 ± 0.022
308.15 K, x1 = 0.8997	1020.34 ± 0.23	2.026 ± 0.021
308.15 K, x1 = 1	1017.42 ± 0.24	1.858 ± 0.02
313.15 K, x1 = 0.0999	1018.16 ± 0.1	1.525 ± 0.015
313.15 K, x1 = 0.2	1018.95 ± 0.11	1.646 ± 0.016
313.15 K, x1 = 0.3001	1019.72 ± 0.13	1.765 ± 0.017
313.15 K, x1 = 0.4	1019.99 ± 0.14	1.845 ± 0.018
313.15 K, x1 = 0.4997	1020 ± 0.15	1.918 ± 0.019
313.15 K, x1 = 0.6	1019.48 ± 0.17	1.948 ± 0.02
313.15 K, x1 = 0.7002	1018.46 ± 0.19	1.937 ± 0.02
313.15 K, x1 = 0.7999	1017.01 ± 0.2	1.896 ± 0.02
313.15 K, x1 = 0.8997	1015 ± 0.22	1.816 ± 0.019
313.15 K, x1 = 1	1011.9 ± 0.24	1.658 ± 0.018
318.15 K, x1 = 0.0999	1013.66 ± 0.099	1.417 ± 0.014
318.15 K, x1 = 0.2	1014.4 ± 0.11	1.523 ± 0.015
318.15 K, x1 = 0.3001	1015.1 ± 0.12	1.625 ± 0.016
318.15 K, x1 = 0.4	1015.29 ± 0.14	1.689 ± 0.017
318.15 K, x1 = 0.4997	1015.19 ± 0.15	1.748 ± 0.018
318.15 K, x1 = 0.6	1014.55 ± 0.17	1.768 ± 0.018
318.15 K, x1 = 0.7002	1013.4 ± 0.18	1.751 ± 0.018
318.15 K, x1 = 0.7999	1011.81 ± 0.2	1.712 ± 0.018
318.15 K, x1 = 0.8997	1009.64 ± 0.22	1.636 ± 0.017
318.15 K, x1 = 1	1006.36 ± 0.23	1.491 ± 0.016
323.15 K, x1 = 0.0999	1009.17 ± 0.097	1.329 ± 0.013
323.15 K, x1 = 0.2	1009.85 ± 0.11	1.422 ± 0.014
323.15 K, x1 = 0.3001	1010.48 ± 0.12	1.512 ± 0.015
323.15 K, x1 = 0.4	1010.58 ± 0.14	1.563 ± 0.016
323.15 K, x1 = 0.4997	1010.38 ± 0.15	1.615 ± 0.016
323.15 K, x1 = 0.6	1009.62 ± 0.16	1.62 ± 0.017
323.15 K, x1 = 0.7002	1008.34 ± 0.18	1.602 ± 0.017
323.15 K, x1 = 0.7999	1006.6 ± 0.2	1.568 ± 0.017
323.15 K, x1 = 0.8997	1004.28 ± 0.21	1.492 ± 0.016
323.15 K, x1 = 1	1000.79 ± 0.23	1.349 ± 0.015
